Test results taken from patent publication US20040110763A1, “Pyrazolopyridine compound and pharmaceutical use thereof” (priority 2000, published 2004).

| Compound | melting point [°C] |
| --- | --- |
| CCOCCNC(=O)c1ccn2nc(-c3ccccc3)c(-c3ccc(=O)n(C(C)C)n3)c2c1 [Example 78, N-(2-Ethoxyethyl)-3-(3-oxo-2-isopropyl-2,3-dihydropyridazin-6-yl)-2-phenylpyrazolo[1,5-a]pyridine-5-carboxamide] | 149 to 150 |
| CC(C)n1nc(-c2c(-c3ccccc3)nn3ccc(Oc4ccccc4)cc23)ccc1=O [Example 37, 5-Phenoxy-3-(3-oxo-2-isopropyl-2,3-dihydropyridazin-6-yl)-2-phenylpyrazolo[1,5-a]pyridine] | 181 to 182 |
| COc1ccn2nc(-c3ccccc3)c(-c3ccc(=O)n(C)n3)c2c1 [Example 115, 5-Methoxy-3-(3-oxo-2-methyl-2,3-dihydropyridazin-6-yl)-2-phenylpyrazolo[1,5-a]pyridine] | 183 to 184 |
| CC(C)n1nc(-c2c(-c3ccccc3)nn3ccc(OCC(=O)N(C)C)cc23)ccc1=O [Example 40, 2-{[3-(3-oxo-2-isopropyl-2,3-dihydropyridazin-6-yl)-2-phenylpyrazolo[1,5-a]pyridin-5-yl]oxy}-N,N-dimethylacetamide] | 189 to 190 |
| CC(C)CCOc1ccn2nc(-c3ccccc3)c(-c3ccc(=O)n(C(C)C)n3)c2c1 [Example 22, 5-Isopentyloxy-3-(3-oxo-2-isopropyl-2,3-dihydropyridazin-6-yl)-2-phenylpyrazolo[1,5-a]pyridine] | 163 to 163.5 |
| CC(=O)Nc1cccc(Oc2ccn3nc(-c4ccccc4)c(-c4ccc(=O)n(C(C)C)n4)c3c2)c1 [Example 36, N-(3-{[3-(3-oxo-2-isopropyl-2,3-dihydropyridazin-6-yl)-2-phenylpyrazolo[1,5-a]pyridin-5-yl]oxy}phenyl)acetamide] | 177.5 to 178.5 |
| CC(C)n1nc(-c2c(-c3ccccc3)nn3ccc(N4CCC(O)CC4)cc23)ccc1=O [Example 101, 5-(4-Hydroxy-1-piperidinyl)-3-(3-oxo-2-isopropyl-2,3-dihydropyridazin-6-yl)-2-phenylpyrazolo[1,5-a]pyridine] | 213 to 215 |
| CC(C)n1nc(-c2c(-c3ccccc3)nn3ccc(N4CCN(c5ccccc5)CC4)cc23)ccc1=O [Example 99, 5-(4-Phenyl-1-piperazinyl)-3-(3-oxo-2-isopropyl-2,3-dihydropyridazin-6-yl)-2-phenylpyrazolo[1,5-a]pyridine] | > 240 |
| CC(C)OCCNC(=O)c1ccn2nc(-c3ccccc3)c(-c3ccc(=O)n(C(C)C)n3)c2c1 [Example 86, N-(2-Isopropoxyethyl)-3-(3-oxo-2-isopropyl-2,3-dihydropyridazin-6-yl)-2-phenylpyrazolo[1,5-a]pyridine-5-carboxamide] | 124 to 125 |
| CC(C)n1nc(-c2c(-c3ccccc3)nn3ccc(N4CCN(c5ccccn5)CC4)cc23)ccc1=O [Example 102, 5-[4-(2-Pyridinyl)-1-piperazinyl]-3-(3-oxo-2-isopropyl-2,3-dihydropyridazin-6-yl)-2-phenylpyrazolo[1,5-a]pyridine] | 221 to 222 |
| COCC(C)n1nc(-c2c(-c3ccccc3)nn3ccc(OC)cc23)ccc1=O (stereo not shown) [Example 121, 5-Methoxy-3-[3-oxo-2-(1-methoxy-2-propyl)-2,3-dihydropyridazin-6-yl]-2-phenylpyrazolo[1,5-a]pyridine] | 138 to 139 |
| CC(C)n1nc(-c2c(-c3ccccc3)nn3ccc(OCC(=O)NC4CCC(O)CC4)cc23)ccc1=O (stereo not shown) [Example 64, N-(4-Hydroxycyclohexyl)-2-{[3-(3-oxo-2-isopropyl-2,3-dihydropyridazin-6-yl)-2-phenylpyrazolo[1,5-a]pyridin-5-yl]oxy}acetamide] | 146 to 148 |
| COc1ccn2nc(-c3ccc(F)cc3)c(-c3ccc(=O)n(C)n3)c2c1 [Example 130, 5-Methoxy-3-(3-oxo-2-methyl-2,3-dihydropyridazin-6-yl)-2-(4-fluorophenyl)pyrazolo[1,5-a]pyridine] | 221 to 222 |
